From patent US20230391760A1, “HETEROCYCLIC GLP-1 AGONISTS” (Gasherbrum Bio, Inc., priority 2020, published 2023)

Target: GLP-1 Receptor (Homo sapiens, UniProt P43220)
Experiment: GLP-1R agonist cAMP stimulation assay (HEK293/GLP1R/CRE-LUC cells, cAMP dynamic 2 Kit)
Assay type: cell-based
Conditions: HEK293/CRE-Luc cell line stably expressing the GLP-1 Receptor, 30 min at 37° C.
Outline: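 HEK293 cells stably expressing human GLP-1R with CRE-luciferase, 1000 cells/well in DPBS with 0.5 mM IBMX and 0.1% BSA, treated with compound in 1/2-log serial dilution for 30 min at 37 °C. cAMP then detected by HTRF (cAMP-d2 plus anti-cAMP cryptate), 1 h at room temperature in the dark.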

Chain of GLP-1 Receptor (P43220 24-463, species assumed): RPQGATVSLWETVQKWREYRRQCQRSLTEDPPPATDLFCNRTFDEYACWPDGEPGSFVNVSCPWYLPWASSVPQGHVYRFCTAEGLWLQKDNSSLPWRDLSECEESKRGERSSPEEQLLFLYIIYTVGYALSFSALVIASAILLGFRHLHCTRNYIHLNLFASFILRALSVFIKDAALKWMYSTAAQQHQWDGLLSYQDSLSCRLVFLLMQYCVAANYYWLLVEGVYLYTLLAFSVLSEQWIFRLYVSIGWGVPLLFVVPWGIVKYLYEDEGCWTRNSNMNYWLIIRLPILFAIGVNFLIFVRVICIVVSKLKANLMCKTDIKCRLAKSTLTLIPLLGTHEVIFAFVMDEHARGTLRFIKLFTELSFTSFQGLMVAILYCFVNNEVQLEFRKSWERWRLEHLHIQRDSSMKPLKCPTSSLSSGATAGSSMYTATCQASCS

SMILES	EC50 [nM]
O=C(Nc1ccc2c(c1)nc(CN1CCC(c3cccc(OCc4ccc(Cl)cc4F)n3)CC1)n2C[C@@H]1CCO1)c1cccnc1 [Compound 168a, N-{2-[(4-{6-[(4-chloro-2-fluorophenyl)methoxy]pyridin-2-yl}piperidin-1-yl)methyl]-1-{[(2S)-oxetan-2-yl]methyl}-1H-1,3-benzodiazol-5-yl}pyridine-3-carboxamide]	0.058
CC1(c2ccc(Cl)cc2F)Oc2cccc(C3=CCN(Cc4nc5cc(-c6nnc(C(F)(F)F)[nH]6)ccc5n4C[C@@H]4CCO4)CC3)c2O1 (stereo partly drawn) [Compound 256a, 2-({4-[2-(4-chloro-2-fluorophenyl)-2-methyl-2H-1,3-benzodioxol-4-yl]-1,2,3,6-tetrahydropyridin-1-yl}methyl)-1-{[(2S)-oxetan-2-yl]methyl}-5-[5-(trifluoromethyl)-4H-1,2,4-triazol-3-yl]-1H-1,3-benzodiazole]	0.23
Cc1nnc(-c2cc3nc(CN4CCC(c5cccc6c5O[C@@](C)(c5ccc(C#N)cc5F)O6)CC4)n(C[C@@H]4CCO4)c3cn2)[nH]1 [Compound 288a, 3-fluoro-4-[(2S)-2-methyl-4-(1-{[6-(5-methyl-4H-1,2,4-triazol-3-yl)-3-{[(2S)-oxetan-2-yl]methyl}-3H-imidazo[4,5-c]pyridin-2-yl]methyl}piperidin-4-yl)-2H-1,3-benzodioxol-2-yl]benzonitrile]	0.0087
O=c1[nH]c(-c2cc3nc(CN4CCC(c5cccc6c5OC[C@@H](c5ccc(Cl)cc5)O6)CC4)n(C[C@@H]4CCO4)c3cn2)no1 [Compound 422a, 3-[2-({4-[(2R)-2-(4-chlorophenyl)-2,3-dihydro-1,4-benzodioxin-5-yl]piperidin-1-yl}methyl)-3-{[(2S)-oxetan-2-yl]methyl}-3H-imidazo[4,5-c]pyridin-6-yl]-4,5-dihydro-1,2,4-oxadiazol-5-one]	0.17
C[C@H]1CN(c2nc(OCc3ccc(Cl)cc3F)ccc2F)CCN1Cc1nc2cc(-c3nnc(C(F)(F)F)[nH]3)nnc2n1C[C@@H]1CCO1 [Compound 514a, (2S)-4-{6-[(4-chloro-2-fluorophenyl)methoxy]-3-fluoropyridin-2-yl}-2-methyl-1-[(7-{[(2S)-oxetan-2-yl]methyl}-3-[5-(trifluoromethyl)-4H-1,2,4-triazol-3-yl]-7H-imidazo[4,5-c]pyridazin-6-yl)methyl]piperazine]	0.071
C[C@]1(c2ccc(Cl)cc2F)Oc2cccc(C3CCN(Cc4nc5cc(-c6nnc(C7CC7)[nH]6)ccc5n4C[C@@H]4CCO4)CC3)c2O1 [Compound 283a, 2-({4-[(2S)-2-(4-chloro-2-fluorophenyl)-2-methyl-2H-1,3-benzodioxol-4-yl]piperidin-1-yl}methyl)-5-(5-cyclopropyl-4H-1,2,4-triazol-3-yl)-1-{[(2S)-oxetan-2-yl]methyl}-1H-1,3-benzodiazole]	0.1
COC(=O)Nc1ccc2c(c1)nc(CN1CCC(c3cccc(OCc4ccc(Cl)cc4F)n3)CC1)n2C[C@@H]1CCO1 [Compound 146a, methyl N-{2-[(4-{6-[(4-chloro-2-fluorophenyl)methoxy]pyridin-2-yl}piperidin-1-yl)methyl]-1-{[(2S)-oxetan-2-yl]methyl}-1H-1,3-benzodiazol-5-yl}carbamate]	0.49
O=C1OCCN1c1ccc2c(c1)nc(CN1CCC(c3cccc(OCc4ccc(Cl)cc4F)n3)CC1)n2C[C@@H]1CCO1 [Compound 120a, 3-{2-[(4-{6-[(4-chloro-2-fluorophenyl)methoxy]pyridin-2-yl}piperidin-1-yl)methyl]-1-{[(2S)-oxetan-2-yl]methyl}-1H-1,3-benzodiazol-5-yl}-1,3-oxazolidin-2-one]	4
Fc1cc(Cl)ccc1COc1cccc(C2CCN(Cc3nc4cc(/C=C/c5cccnc5)ccc4n3C[C@@H]3CCO3)CC2)n1 [Compound 217a, 2-[(4-{6-[(4-chloro-2-fluorophenyl)methoxy]pyridin-2-yl}piperidin-1-yl)methyl]-1-{[(2S)-oxetan-2-yl]methyl}-5-[(E)-2-(pyridin-3-yl)ethenyl]-1H-1,3-benzodiazole]	4.6
CC1(c2ccc(Cl)cc2F)Oc2cccc(C3CCN(Cc4nc5cc(-c6nnn[nH]6)ncc5n4C[C@@H]4CCO4)CC3)c2O1 (stereo partly drawn) [Compound 218a, 4-[2-(4-chloro-2-fluorophenyl)-2-methyl-2H-1,3-benzodioxol-4-yl]-1-[(3-{[(2S)-oxetan-2-yl]methyl}-6-(1H-1,2,3,4-tetrazol-5-yl)-3H-imidazo[4,5-c]pyridin-2-yl)methyl]piperidine]	0.013
Fc1cc(Cl)ccc1COc1cccc(C2CCN(Cc3nc4cc(-c5cn[nH]n5)ccc4n3C[C@@H]3CCO3)CC2)n1 [Compound 149a, 2-[(4-{6-[(4-chloro-2-fluorophenyl)methoxy]pyridin-2-yl}piperidin-1-yl)methyl]-1-{[(2S)-oxetan-2-yl]methyl}-5-(2H-1,2,3-triazol-4-yl)-1H-1,3-benzodiazole]	4.8

The remaining compounds from weak to strong by EC50, led by results:

EC50 [nM]	SMILES
5.3	Cc1ccnn1C(C)C(=O)Nc1ccc2c(c1)nc(CN1CCC(c3cccc(OCc4ccc(Cl)cc4F)n3)CC1)n2C[C@@H]1CCO1 (stereo partly drawn) [Compound 185a, N-{2-[(4-{6-[(4-chloro-2-fluorophenyl)methoxy]pyridin-2-yl}piperidin-1-yl)methyl]-1-{[(2S)-oxetan-2-yl]methyl}-1H-1,3-benzodiazol-5-yl}-2-(5-methyl-1H-pyrazol-1-yl)propanamide]
2.7	Fc1cc(Cl)ccc1COc1cccc(C2CCN(Cc3nc4cc(-c5ccn[nH]5)ccc4n3C[C@@H]3CCO3)CC2)n1 [Compound 215a, 2-[(4-{6-[(4-chloro-2-fluorophenyl)methoxy]pyridin-2-yl}piperidin-1-yl)methyl]-1-{[(2S)-oxetan-2-yl]methyl}-5-(1H-pyrazol-5-yl)-1H-1,3-benzodiazole]
0.55	CC1(c2ccc(Cl)cc2F)Oc2cccc(C3CCN(Cc4nc5cc(-c6noc(=O)[nH]6)c(F)cc5n4C[C@@H]4CCO4)CC3)c2O1 (stereo partly drawn) [Compound 222a, 3-[2-({4-[2-(4-chloro-2-fluorophenyl)-2-methyl-2H-1,3-benzodioxol-4-yl]piperidin-1-yl}methyl)-6-fluoro-1-{[(2S)-oxetan-2-yl]methyl}-1H-1,3-benzodiazol-5-yl]-4,5-dihydro-1,2,4-oxadiazol-5-one]
0.46	CO[C@H](C)Cn1c(CN2CCC(c3cccc4c3O[C@@](C)(c3ccc(Cl)cn3)O4)CC2)nc2cc(-c3nnc(C(F)(F)F)[nH]3)nnc21 [Compound 473a, 5-chloro-2-[(2S)-4-[1-({7-[(2R)-2-methoxypropyl]-3-[5-(trifluoromethyl)-4H-1,2,4-triazol-3-yl]-7H-imidazo[4,5-c]pyridazin-6-yl}methyl)piperidin-4-yl]-2-methyl-2H-1,3-benzodioxol-2-yl]pyridine]
0.35	O=C(Nc1ccc2c(c1)nc(CN1CCC(c3cccc(OCc4ccc(Cl)cc4F)n3)CC1)n2C[C@@H]1CCO1)c1cncnc1 [Compound 200a, N-{2-[(4-{6-[(4-chloro-2-fluorophenyl)methoxy]pyridin-2-yl}piperidin-1-yl)methyl]-1-{[(2S)-oxetan-2-yl]methyl}-1H-1,3-benzodiazol-5-yl}pyrimidine-5-carboxamide]
0.17	Cc1nc(-c2nnc(C(F)(F)F)[nH]2)cc2nc(CN3CCC(c4cccc5c4O[C@@](C)(c4ccc(Cl)cc4F)O5)CC3)n(C[C@@H]3CCO3)c12 [Compound 302a, 4-[(2S)-2-(4-chloro-2-fluorophenyl)-2-methyl-2H-1,3-benzodioxol-4-yl]-1-[(4-methyl-3-{[(2S)-oxetan-2-yl]methyl}-6-[5-(trifluoromethyl)-4H-1,2,4-triazol-3-yl]-3H-imidazo[4,5-c]pyridin-2-yl)methyl]piperidine]
0.14	O=C(Nc1ccc2c(c1)nc(CN1CCC(c3cccc(OCc4ccc(Cl)cc4F)n3)CC1)n2C[C@@H]1CCO1)c1ccccn1 [Compound 170a, N-{2-[(4-{6-[(4-chloro-2-fluorophenyl)methoxy]pyridin-2-yl}piperidin-1-yl)methyl]-1-{[(2S)-oxetan-2-yl]methyl}-1H-1,3-benzodiazol-5-yl}pyridine-2-carboxamide]
0.12	CO[C@H](C)Cn1c(CN2CCC(c3cccc4c3O[C@@](C)(c3ccc(Cl)cn3)O4)CC2)nc2cc(-c3nnc(C(F)(F)F)[nH]3)ncc21 [Compound 455a, 5-chloro-2-[(2S)-4-[1-({3-[(2R)-2-methoxypropyl]-6-[5-(trifluoromethyl)-4H-1,2,4-triazol-3-yl]-3H-imidazo[4,5-c]pyridin-2-yl}methyl)piperidin-4-yl]-2-methyl-2H-1,3-benzodioxol-2-yl]pyridine]
0.11	CC1(c2ccc(Cl)cc2F)Oc2cccc(C3CCN(Cc4nc5cc(-c6nnc(C(F)(F)F)[nH]6)c(F)cc5n4C[C@@H]4CCO4)CC3)c2O1 (stereo partly drawn) [Compound 248a, 2-({4-[2-(4-chloro-2-fluorophenyl)-2-methyl-2H-1,3-benzodioxol-4-yl]piperidin-1-yl}methyl)-6-fluoro-1-{[(2S)-oxetan-2-yl]methyl}-5-[5-(trifluoromethyl)-4H-1,2,4-triazol-3-yl]-1H-1,3-benzodiazole]
0.087	N#Cc1ccc(COc2cc(N3CCN(Cc4nc5cc(-c6nnc(C(F)(F)F)[nH]6)ncc5n4C[C@@H]4CCO4)CC3)ccc2F)c(F)c1 [Compound 469a, 3-fluoro-4-[(2-fluoro-5-{4-[(3-{[(2S)-oxetan-2-yl]methyl}-6-[5-(trifluoromethyl)-4H-1,2,4-triazol-3-yl]-3H-imidazo[4,5-c]pyridin-2-yl)methyl]piperazin-1-yl}phenoxy)methyl]benzonitrile]
0.0064	C[C@]1(c2ccc(C#N)cc2F)Oc2cccc(C3CCN(Cc4nc5cc(-c6n[nH]c(C(F)(F)F)n6)ncc5n4C[C@@H]4CCO4)CC3)c2O1 [Compound 342a, 3-fluoro-4-[(2S)-2-methyl-4-{1-[(3-{[(2S)-oxetan-2-yl]methyl}-6-[5-(trifluoromethyl)-4H-1,2,4-triazol-3-yl]-3H-imidazo[4,5-c]pyridin-2-yl)methyl]piperidin-4-yl}-2H-1,3-benzodioxol-2-yl]benzonitrile]
